Values of other authors, collected in patent publication US12553008B2, “Extracting and refining plant cuticular waxes from aqueous dispersion using temperature and pH adjustment” (JENA TRADING APS, priority 2019, dated 2026).
Read-outs that look alike come from different tables or passages of the source.

Tests used:
[1] = not given; remark: listed apart in the source

| pKa | Solubility of free fatty acids in water ([1]; at 30° C.) [mg/L at 30 °C] | SMILES | also measured |
| --- | --- | --- | --- |
| 5.3 | 63 | CCCCCCCCCCCC(=O)O [Lauric (C12 saturated), Lauric] | Solubility of free fatty acids in water ([1]; at 45° C.): 72 mg/L at 45 °C |
|  |  | CCCCCCCC/C=C\CCCCCCCC(=O)O [Oleic (C18 mono-unsaturated), oleic acid] | Solubility of free fatty acids in water ([1]; in words, no temperature printed): Insoluble; Solubility of free fatty acids in water ([1]; in words, no temperature printed, listed as oleic): very low |
| 4.75 |  | CCCCCCCCCCCCCCCC(=O)O [Palmitic (C16 saturated), Palmitic] |  |
| 4.9 | 24 | CCCCCCCCCCCCCC(=O)O [Myristic (C14 saturated), Myristic] | Solubility of free fatty acids in water ([1]; at 60° C.): 33 mg/L at 60 °C |
| 4.8-4.9 |  | CCCCCCCCCCCCCCCCCC(=O)O [Stearic (C18 saturated), Stearic] |  |
